Results from US20140057915A1, “KINASE INHIBITORS” (TOPIVERT PHARMA LIMITED, priority 2012, published 2014).

What was measured:
[1] = tested on: d-U937 cells; assay: Cell viability: MTT assay; assay type: cell-based, human; conditions: 1 μg/mL
Method in brief: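 Differentiated U937 cells exposed to compound at 1 or 10 μg/mL, either 4 h in 5% FCS or 24 h in 10% FCS RPMI1640. MTT then added for 1 h, formazan dissolved in DMSO and read at 550 nm. Viability loss given as % versus 0.5% DMSO vehicle; apparent gains appear negative.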

[2] = tested on: TNFα release, d-U937 cells; assay: LPS-induced TNFα release in d-U937 cells; assay type: cell-based; conditions: Homo sapiens, dU937; relative to 10 μg/mL BIRB796; Table 4c1; read-out: LPS Induced Release of Cytokine in d-U937 Cells, TNFα REC50
Method in brief: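 U937 cells differentiated with PMA (100 ng/mL, 48–72 hr), pre-treated with compound for 2 hr, then stimulated with E. coli LPS (0.1 μg/mL) for 4 hr. Supernatant cytokine measured by sandwich ELISA; inhibition versus vehicle control, REC50 from concentration-response curve.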

[3] = tested on: ICAM-1 expression, BEAS2B cells; assay: Poly I:C-induced ICAM-1 expression in BEAS2B cells; assay type: cell-based; conditions: Homo sapiens, BEAS-2B; read-out: Poly IC induced ICAM1 in BEAS2B, IC50
Method in brief: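 BEAS2B human bronchial epithelial cells pre-incubated 2 h with compound, then transfected with poly I:C (1 μg/mL) plus Oligofectamine. After 18 h, cell-surface ICAM-1 read by cell-based ELISA (A450–655), normalised to Crystal Violet cell number (A595); inhibition calculated against vehicle control at each concentration.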

[4] = biological target: B-Raf (Homo sapiens, UniProt P15056); assay: Enzyme binding assay (Kinomescan); conditions: read-out: % Inhibition of kinase binding at 500 nM, B-Raf
B-Raf, sequence (P15056 whole entry): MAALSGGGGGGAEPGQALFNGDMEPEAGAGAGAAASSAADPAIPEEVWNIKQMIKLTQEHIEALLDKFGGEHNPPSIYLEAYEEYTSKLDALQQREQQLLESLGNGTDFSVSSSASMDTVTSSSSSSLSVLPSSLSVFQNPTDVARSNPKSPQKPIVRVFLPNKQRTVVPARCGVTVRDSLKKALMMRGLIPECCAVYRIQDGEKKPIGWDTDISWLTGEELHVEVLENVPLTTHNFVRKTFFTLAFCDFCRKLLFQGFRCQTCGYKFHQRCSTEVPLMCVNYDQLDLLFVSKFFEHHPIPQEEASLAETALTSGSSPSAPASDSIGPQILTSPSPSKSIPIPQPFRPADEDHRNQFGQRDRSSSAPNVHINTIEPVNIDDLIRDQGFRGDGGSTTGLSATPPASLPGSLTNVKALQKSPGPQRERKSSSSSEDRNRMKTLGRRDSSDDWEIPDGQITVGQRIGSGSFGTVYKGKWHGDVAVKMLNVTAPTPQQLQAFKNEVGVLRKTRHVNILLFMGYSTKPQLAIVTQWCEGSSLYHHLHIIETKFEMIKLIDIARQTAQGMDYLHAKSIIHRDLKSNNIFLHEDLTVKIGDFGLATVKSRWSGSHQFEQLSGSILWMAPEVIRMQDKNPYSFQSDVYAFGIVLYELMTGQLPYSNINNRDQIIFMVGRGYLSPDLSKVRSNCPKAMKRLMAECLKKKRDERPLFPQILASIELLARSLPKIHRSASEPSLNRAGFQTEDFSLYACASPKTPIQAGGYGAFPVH
Method: (§1) Enzyme Binding Assays (Kinomescan)
(§2) The kinase enzyme binding activities of compounds disclosed herein were determined using a proprietary assay which measures active site-directed competition binding to an immobilized ligand (Fabian, M. A. et al., Nature Biotechnol., 2005, 23:329-336). These assays were conducted by DiscoverX (formerly Ambit; San Diego, Calif.). The percentage inhibition produced by incubation with a test compound is calculated relative to the non-inhibited control.

[5] = biological target: p38 MAPKα (Homo sapiens, UniProt Q16539); assay: Enzyme binding assay (Kinomescan); conditions: read-out: % Inhibition of kinase binding at 500 nM, p38 MAPKα
p38 MAPKα, sequence (Q16539 whole entry): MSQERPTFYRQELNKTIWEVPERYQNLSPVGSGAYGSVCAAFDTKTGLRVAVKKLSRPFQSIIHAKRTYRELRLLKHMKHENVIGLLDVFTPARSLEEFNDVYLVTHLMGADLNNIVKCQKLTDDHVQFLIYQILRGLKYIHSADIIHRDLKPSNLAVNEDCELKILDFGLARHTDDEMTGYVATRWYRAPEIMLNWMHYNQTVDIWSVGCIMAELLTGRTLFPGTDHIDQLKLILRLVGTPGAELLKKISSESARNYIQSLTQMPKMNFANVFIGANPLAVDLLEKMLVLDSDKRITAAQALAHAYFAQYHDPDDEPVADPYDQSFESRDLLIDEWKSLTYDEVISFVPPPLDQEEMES
Method: as §1, §2

[6] = biological target: Syk (Homo sapiens, UniProt P43405); assay: Enzyme binding assay (Kinomescan); conditions: read-out: % Inhibition of kinase binding at 500 nM, Syk
Method: as §1
(§3) These assays were conducted by DiscoverX (formerly Ambit; San Diego, Calif.). The percentage inhibition produced by incubation with a test compound is calculated relative to the non-inhibited control.

[7] = biological target: GSK3α (Homo sapiens, UniProt P49840); assay: Enzyme binding assay (Kinomescan); conditions: read-out: % Inhibition of kinase binding at 500 nM, GSK3α
GSK3α, sequence (P49840 whole entry): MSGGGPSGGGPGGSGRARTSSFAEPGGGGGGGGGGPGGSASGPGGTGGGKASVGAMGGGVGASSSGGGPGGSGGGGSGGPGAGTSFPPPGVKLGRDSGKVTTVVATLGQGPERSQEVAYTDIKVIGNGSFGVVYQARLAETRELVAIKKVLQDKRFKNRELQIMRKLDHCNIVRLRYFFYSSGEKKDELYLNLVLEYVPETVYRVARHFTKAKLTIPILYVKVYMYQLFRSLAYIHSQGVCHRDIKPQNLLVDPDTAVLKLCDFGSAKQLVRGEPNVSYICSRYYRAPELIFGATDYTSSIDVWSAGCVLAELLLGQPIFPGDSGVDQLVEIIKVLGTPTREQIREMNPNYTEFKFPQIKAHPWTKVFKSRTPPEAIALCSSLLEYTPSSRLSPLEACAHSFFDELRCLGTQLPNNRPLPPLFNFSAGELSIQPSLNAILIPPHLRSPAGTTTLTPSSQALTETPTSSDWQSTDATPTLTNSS
Method: as §3

EC50 [2]: 0.13 nM
inhibition at 0.5 µM [4]: 70%
inhibition at 0.5 µM [5]: 100%
inhibition at 0.5 µM [6]: 95%
inhibition at 0.5 µM [7]: 84%
SMILES: COCC(=O)Nc1cc(Oc2ccc(NC(=O)Nc3cc(C(C)(C)C)nn3-c3ccc(C)cc3)c3ccccc23)ccn1 [Reference Compound, N-(4-(4-(3-(3-tert-butyl-1-p-tolyl-1H-pyrazol-5-yl)ureido)naphthalen-1-yloxy)pyridin-2-yl)-2-methoxyacetamide, reference compound]
Cell viability at time point in d-U937 cells, 4 h ([1]; 4 h): −ve (−ve and +ve indicate that the value is below and above respectively, the no significant effect threshold, defined as 30% inhibition at 1 μg/mL at the time point indicated)
Cell viability at time point in d-U937 cells, 24 h ([1]; 24 h): +ve (−ve and +ve indicate that the value is below and above respectively, the no significant effect threshold, defined as 30% inhibition at 1 μg/mL at the time point indicated)
IC50 [3]: 2.1 nM
